Patent publication US20240325394A1, “SALT AND CRYSTAL FORM OF NITROGEN-CONTAINING HETEROCYCLIC DERIVATIVE, PREPARATION METHOD THEREFOR AND APPLICATION THEREOF” (SHANGHAI HANSOH BIOMEDICAL CO., LTD., priority 2020, published 2024)

Experiments:
[1] = tested on: plasma protein; assay: Plasma protein binding rate test, rat plasma; type: in vitro ADME; conditions: 5 μM, 37° C., 6 hours
Description: (§1) The embodiment compound was prepared into a 1 mM solution A with DMSO.
(§2) Solution A was added to the plasma solution and prepared into a 5 μM solution B.
(§3) • 1) 200 μL of solution B was added into the membrane. • 2) 350 μL of PBS was added to the outside of the membrane. • 3) Incubating in a 37° C. water bath for 6 hours. • 4) The samples were processed for dilution and detected by mass spectrometry.
(§4) • instrument: Shimadzu LC-20 AD; • chromatographic column: phenomenex Gemiu® C18 (50*4.6 mm, 5 UM particle size); • mobile phase: A: Acetonitrile, B: 0.1% formic acid solution 0-0.5 min: 5% A→90% A, 2.0-2.1 min: 90% A→5% A; flow rate: 0.8 mL/min; running time: 5.0 min; injection volume: 5 μL.
(§5) • instrument: API4000 Liquid Chromatography-Mass Spectrometry, AB, USA; • the ion source was electrospray ionization source (ESI); • the temperature of dry gas (N2) was 500° C.; • electrospray voltage was 5500V; • the detection method was positive ion detection; • the scanning mode was selective response monitoring (MRM); the scanning time was 0.1 s.

[2] = tested on: NCI-H358 cells (KRAS G12C mutant); assay: Inhibition of NCI-H358 cell proliferation (CellTiter-Glo, 72 h); type: cell-based, human
Description: (§6) When NCI-H358 or Mia PaCa-2 cells were cultured to the appropriate fusion level, the NCI-H358 or Mia PaCa-2 cells were collected, and the cells were adjusted to the appropriate cell concentration using a complete medium, and the cell suspension was spread in a 96-well plate, 90 μL per well, and placed in a 37° C., 5% CO2 incubator overnight; and compound solutions of different concentrations were prepared using DMSO and culture medium; and a solvent control was set, the compound solution was added to a 96-well plate, 10 μL per well, at 37° C. in a 5% CO2 incubator for 72 hours; CellTiter-Glo solution was added thereto and the mixture was mixed well by shaking, incubated for 10 min in the dark, and read by BioTek Synergy H1 microplate reader.
(§7) The luminescence signal values were used to calculate the inhibition rate, the concentration and the inhibition rate were fitted to a nonlinear regression curve using Graphpad Prism software, then the IC50 value was obtained.

[3] = tested on: plasma protein; assay: Plasma protein binding rate test, mouse plasma; type: in vitro ADME; conditions: 5 μM, 37° C., 6 hours
Description: as §1, §2, §3, §4, §5

[4] = tested on: plasma protein; assay: Plasma protein binding rate test, human plasma; type: in vitro ADME; conditions: 5 μM, 37° C., 6 hours
Description: as §1, §2, §3, §4, §5

[5] = tested on: Mia PaCa-2 cells (KRAS G12C mutant); assay: Inhibition of Mia PaCa-2 cell proliferation (CellTiter-Glo, 72 h); type: cell-based, human
Description: as §6, §7

[6] = Plasma protein binding rate test, human plasma; type: in vitro ADME; conditions: 37° C.
Description: as §1, §2, §3, §4, §5

Compound	Plasma protein binding rate, Rat [1]	IC50 [2] [nM]	Plasma protein binding rate, Mouse [3]	Plasma protein binding rate, Human [4]	IC50 [5] [nM]	fraction unbound at 6 h, 5 μM [6]
P-4-((2S,5R)-4-acryloyl-2,5-dimethylpiperazin-1-yl)-6-fluoro-7-(2-fluoro-6-hydroxyphenyl)-1-(2-isopropyl-4-(methylthio)pyridin-3-yl)pyrido[2,3-d]pyrimidin-2(1H)-one [Embodiment 2-1]	90.5	35	88.4	98.0	29	–
C=CC(=O)N1C[C@H](C)N(c2nc(=O)n(-c3c(SC)ccnc3C(C)C)c3nc(-c4c(N)ccc(Cl)c4F)c(Cl)cc23)C[C@H]1C (atropisomer, axis not shown) [Embodiment 13-1, P-4-((2S,5R)-4-Acryloyl-2,5-dimethylpiperazin-1-yl)-7-(6-amino-3-chloro-2-fluorophenyl)-6-chloro-1-(2-isopropyl-4-(methylthio)pyridin-3-yl)pyrido[2,3-d]pyrimidin-2(1H)-one]	–	–	–	–	–	0.003
